Reference: patent US10633407B2, “14-membered ketolides and methods of their preparation and use” (President and Fellows of Harvard College, priority 2014, dated 2020)
≈ marks a conversion by molar mass, not a printed value. Like-named read-outs stand apart in the source and are kept apart here.

Tests used:
Format in all cases: cell-based
E. coli ATCC 25922 = experiment: CLSI broth dilution MIC determination
Method in brief: (§1)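 Method: CLSI broth dilution; endpoint: MIC. Macrolide controls azithromycin and solithromycin added in many cases.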

E. coli CTX-M-14 = experiment: CLSI broth dilution MIC determination
Method in brief: as §1

E. coli NDM-1 = experiment: CLSI broth dilution MIC determination
Method in brief: as §1

E. coli TEM-1 = experiment: CLSI broth dilution MIC determination
Method in brief: as §1

H. influenzae ATCC49247 = experiment: CLSI broth dilution MIC determination
Method in brief: as §1

K. pneumoniae TEM-10 = experiment: CLSI broth dilution MIC determination
S. aureus ATCC 29213 = experiment: CLSI broth dilution MIC determination
Method in brief: as §1

S. aureus MRSA: USA100 = experiment: CLSI broth dilution MIC determination
Method in brief: as §1

S. aureus MRSA: USA300 = experiment: CLSI broth dilution MIC determination
Method in brief: as §1

S. aureus USA600, GISA = experiment: CLSI broth dilution MIC determination
Method in brief: as §1

S. aureus erm A genotype = experiment: CLSI broth dilution MIC determination
Method in brief: as §1

S. pneumoniae ATCC 49619 = experiment: CLSI broth dilution MIC determination
Method in brief: as §1

[1] = tested on: S. pneumoniae erm B + mef A genotype; experiment: CLSI broth dilution MIC determination; conditions: Streptococcus pneumoniae
Method in brief: as §1

[2] = tested on: S. pneumoniae erm B + tet(M,O) genotype; experiment: CLSI broth dilution MIC determination; conditions: Streptococcus pneumoniae
Method in brief: as §1

[3] = tested on: S. pneumoniae mef A genotype (second strain so labelled); experiment: CLSI broth dilution MIC determination
Method in brief: as §1

S. pyogenes ATCC 19615 = experiment: CLSI broth dilution MIC determination
[4] = tested on: S. pyogenes Macrolide-resistant; experiment: CLSI broth dilution MIC determination
E. faecalis ATCC 29212 = experiment: CLSI broth dilution MIC determination
[5] = tested on: E. faecalis Vancomycin-resistant; experiment: CLSI broth dilution MIC determination
A. baumannii ATCC 19606 = experiment: CLSI broth dilution MIC determination
[6] = tested on: A. baumannii imipenem-resistant; experiment: CLSI broth dilution MIC determination
[7] = tested on: A. baumannii chromosomal class C; experiment: CLSI broth dilution MIC determination
A. baumannii IMP-4 = experiment: CLSI broth dilution MIC determination
K. pneumoniae ATCC 10031 = experiment: CLSI broth dilution MIC determination
K. pneumoniae KPC-2 = experiment: CLSI broth dilution MIC determination
K. pneumoniae SHV-12 = experiment: CLSI broth dilution MIC determination
P. aeruginosa ATCC 27853 = experiment: CLSI broth dilution MIC determination
[8] = tested on: P. aeruginosa HPA101-1477; experiment: CLSI broth dilution MIC determination
[9] = tested on: H. influenzae Erythro >4, Azithro 1; experiment: CLSI broth dilution MIC determination
Excerpt: MIC data was collected for the novel macrolides that this platform has produced against over 21 unique strains of B. subtilis, E. coli, S. aureus, S. pneumoniae, and H. influenzae, including several multidrug-resistant strains, with a special focus on macrolide resistant mechanisms (vide supra). […] CLSI standard procedures for broth dilution MIC determination were used. […] These genotypes can be constitutive or inducible.

[10] = tested on: strains of B. subtilis, E. coli, S. aureus, S. pneumoniae, and H. influenzae, including several multidrug-resistant strains; experiment: CLSI broth dilution MIC determination, whole panel of strains; conditions: from MIC data, Tables B1-B13
Excerpt: MIC data was collected for the novel macrolides that this platform has produced against over 21 unique strains of B. subtilis, E. coli, S. aureus, S. pneumoniae, and H. influenzae, including several multidrug-resistant strains, with a special focus on macrolide resistant mechanisms (vide supra). Azithromycin (Azithro) and Solithromycin (Solithro) were included as a control macrolides in many cases. CLSI standard procedures for broth dilution MIC determination were used. […] These genotypes can be constitutive or inducible.

[11] = Haemophilus influenzae, read-out: MIC
[12] = Acinetobacter baumannii, read-out: MIC

CC[C@H]1OC(=O)[C@@](C)(F)C(=O)[C@H](C)[C@@H](O[C@@H]2OC(C)CC(N(C)C)C2O)[C@](C)(OC)C[C@@H](C)C(=O)[C@H](C)[C@H]2N(CC#CCn3cc(-c4cccc(N)c4)nn3)C(=O)O[C@]12C (stereo partly drawn) [FSM-100426]
MIC (E. coli ATCC 25922; E. coli ATCC 25922, Gram-negative): 32 µg/mL (≈ 38.1 µM)
MIC (E. coli ATCC 25922; Escherichia coli, ATCC25922, E. coli ATCC 25922 (MP-4), read-out: MIC): 32 µg/mL (≈ 38.1 µM)
MIC (E. coli CTX-M-14; Escherichia coli, CTXM14, read-out: MIC): > 32 µg/mL
MIC (E. coli CTX-M-14; Gram-negative): > 32 µg/mL
MIC (E. coli NDM-1; Escherichia coli, NDM1, read-out: MIC): > 32 µg/mL
MIC (E. coli NDM-1; Gram-negative): > 32 µg/mL
MIC (E. coli TEM-1; E. coli TEM-1, Gram-negative): > 32 µg/mL
MIC (E. coli TEM-1; Escherichia coli, TEM1): > 32 µg/mL
MIC (H. influenzae ATCC49247; Gram-negative): 4 µg/mL (≈ 4.76 µM)
MIC (H. influenzae ATCC49247; [11]): 4 µg/mL (≈ 4.76 µM)
MIC (K. pneumoniae TEM-10; Gram-negative): > 32 µg/mL
MIC (K. pneumoniae TEM-10; Klebsiella pneumoniae, TEM10, read-out: MIC): > 32 µg/mL
MIC (S. aureus ATCC 29213; S. aureus ATCC 29213, Gram-positive): 0.0625 µg/mL (≈ 0.0743 µM)
MIC (S. aureus ATCC 29213; Staphylococcus aureus, ATCC29213, S. aureus ATCC 29213 (MP-12), read-out: MIC): 0.0625 µg/mL (≈ 0.0743 µM)
MIC (S. aureus MRSA: USA100; S. aureus MRSA: USA100, Gram-positive): > 32 µg/mL
MIC (S. aureus MRSA: USA100; Staphylococcus aureus, S. aureus MRSA: USA100 (MP-618 UNT-096), read-out: MIC): > 32 µg/mL
MIC (S. aureus MRSA: USA300; S. aureus MRSA: USA300, Gram-positive): 0.5 µg/mL (≈ 0.595 µM)
MIC (S. aureus MRSA: USA300; Staphylococcus aureus, S. aureus MRSA: USA300 (MP-549, msr(a)), read-out: MIC): 0.5 µg/mL (≈ 0.595 µM)
MIC (S. aureus USA600, GISA; S. aureus USA600, GISA, Gram-positive): 32 µg/mL (≈ 38.1 µM)
MIC (S. aureus USA600, GISA; Staphylococcus aureus, S. aureus USA600, GISA (MP-619 UNT-120), read-out: MIC): 32 µg/mL (≈ 38.1 µM)
MIC (S. aureus erm A genotype; S. aureus erm A genotype, Gram-positive): > 32 µg/mL
MIC (S. aureus erm A genotype; Staphylococcus aureus, S. aureus erm A genotype (MP-620 UNT-146), read-out: MIC): > 32 µg/mL
MIC (S. pneumoniae ATCC 49619; S. pneumoniae ATCC 49619, Gram-positive): < 0.0312 µg/mL
MIC (S. pneumoniae ATCC 49619; Streptococcus pneumoniae, ATCC49619, S. pneumoniae ATCC 49619 (MP-21), read-out: MIC): < 0.0312 µg/mL
MIC [1]: < 0.0312 µg/mL
MIC [2]: < 0.0312 µg/mL
MIC ([3]; Gram-positive): < 0.0312 µg/mL
MIC ([3]; Streptococcus pneumoniae, second strain (MP-627 UNT-039), read-out: MIC): < 0.0312 µg/mL
MIC (S. pyogenes ATCC 19615; S. pyogenes ATCC 19615, Gram-positive): < 0.0312 µg/mL
MIC (S. pyogenes ATCC 19615; Streptococcus pyogenes, ATCC19615, S. pyogenes ATCC 19615 (MP-19), read-out: MIC): < 0.0312 µg/mL
MIC ([4]; S. pyogenes Macrolide-resistant, Gram-positive): < 0.0312 µg/mL
MIC ([4]; Streptococcus pyogenes, S. pyogenes Macrolide-resistant (MP-625 UNT-014), read-out: MIC): < 0.0312 µg/mL
MIC (E. faecalis ATCC 29212; E. faecalis ATCC 29212, Gram-positive): < 0.0312 µg/mL
MIC (E. faecalis ATCC 29212; Enterococcus faecalis, ATCC29212, E. faecalis ATCC 29212 (MP-24), read-out: MIC): < 0.0312 µg/mL
MIC ([5]; E. faecalis Vancomycin-resistant, Gram-positive): 8 µg/mL (≈ 9.51 µM)
MIC ([5]; Enterococcus faecalis, E. faecalis Vancomycin-resistant (UNT-039), read-out: MIC): 8 µg/mL (≈ 9.51 µM)
MIC (A. baumannii ATCC 19606; A. baumannii ATCC 19606, Gram-negative): 16 µg/mL (≈ 19 µM)
MIC (A. baumannii ATCC 19606; Acinetobacter baumannii, ATCC19606, A. baumannii ATCC 19606 (MP-15), read-out: MIC): 16 µg/mL (≈ 19 µM)
MIC [6, 12]: 8 µg/mL (≈ 9.51 µM)
MIC ([6]; Gram-negative): 8 µg/mL (≈ 9.51 µM)
MIC [7, 12]: 32 µg/mL (≈ 38.1 µM)
MIC ([7]; Gram-negative): 32 µg/mL (≈ 38.1 µM)
MIC (A. baumannii IMP-4; Acinetobacter baumannii, IMP4, read-out: MIC): > 32 µg/mL
MIC (A. baumannii IMP-4; Gram-negative): > 32 µg/mL
MIC (K. pneumoniae ATCC 10031; K. pneumoniae ATCC 10031, Gram-negative): 8 µg/mL (≈ 9.51 µM)
MIC (K. pneumoniae ATCC 10031; Klebsiella pneumoniae, ATCC10031, K. pneumoniae ATCC 10031 (MP-14), read-out: MIC): 8 µg/mL (≈ 9.51 µM)
MIC (K. pneumoniae KPC-2; Gram-negative): > 32 µg/mL
MIC (K. pneumoniae KPC-2; Klebsiella pneumoniae, KPC2, read-out: MIC): > 32 µg/mL
MIC (K. pneumoniae SHV-12; Gram-negative): > 32 µg/mL
MIC (K. pneumoniae SHV-12; Klebsiella pneumoniae, SHV12, read-out: MIC): > 32 µg/mL
MIC (P. aeruginosa ATCC 27853; P. aeruginosa ATCC 27853, Gram-negative): > 32 µg/mL
MIC (P. aeruginosa ATCC 27853; Pseudomonas aeruginosa, ATCC27853, P. aeruginosa ATCC 27853 (MP-3), read-out: MIC): > 32 µg/mL
MIC ([8]; Gram-negative): > 32 µg/mL
MIC ([8]; Pseudomonas aeruginosa, HPA1011477, read-out: MIC): > 32 µg/mL
MIC ([9]; H. influenzae Erythro >4, Azithro 1, Gram-negative): 4 µg/mL (≈ 4.76 µM)
MIC [9, 11]: 4 µg/mL (≈ 4.76 µM)
potency compared with solithromycin [10]: more potent
